Test results taken from patent US5223485A, “Anaphylatoxin-receptor ligands” (Abbott Laboratories, priority 1991, dated 1993).
Numbered stars: 1 amine (or outer) side, 2 acyl side, 3 side chain; on linkers, the order of the positions; unused ones are H or OH. Square brackets hold non-standard residues; d marks the D form. Peptide text beside a SMILES is read from it. * marks the point of attachment. ξ: configuration not given here. Phe(4-NO2) = N[C@@H](Cc1ccc([N+](=O)[O-])cc1)C(=O)O; X1 = O=C([C@@H](N[*:1])C(O)c1ccccc1)[*:2]; X2 = C[C@H](CN[C@@H](CCCNC(=N)N)C(=O)O)N*; 2Nal = N[C@@H](Cc1ccc2ccccc2c1)C(=O)O; Cha = N[C@@H](CC1CCCCC1)C(=O)O; ξTic = O=C(O)C1Cc2ccccc2CN1

Target: T1, C5a Receptor (Homo sapiens, UniProt P21730)
T1 construct: 2.5-25 μg/mL of purified PMNL membrane fragments; from tissue; host or cells: polymorphonuclear leukocyte (PMNL) membrane fragments
T1 sequence (P21730 1-350): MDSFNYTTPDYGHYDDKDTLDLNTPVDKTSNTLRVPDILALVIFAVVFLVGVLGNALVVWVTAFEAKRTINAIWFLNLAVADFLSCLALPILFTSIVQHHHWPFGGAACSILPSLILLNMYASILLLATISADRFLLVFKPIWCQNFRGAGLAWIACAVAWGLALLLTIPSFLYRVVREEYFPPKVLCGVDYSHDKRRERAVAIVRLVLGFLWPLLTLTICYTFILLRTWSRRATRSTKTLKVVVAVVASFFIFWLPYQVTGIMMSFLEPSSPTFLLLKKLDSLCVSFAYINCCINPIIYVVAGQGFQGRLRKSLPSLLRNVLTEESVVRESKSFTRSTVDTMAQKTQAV
Assay: Anaphylatoxin receptor binding Ki determination: inhibition of 125I-C5a binding to PMNL membrane fragments
Details: 0.03-1 nM 125I-C5a, 2.5-25 μg/mL purified PMNL membrane fragments, filtration; read-out: In vitro C5a Receptor Binding Potency Ki
Description: Specific inhibition of C5a binding activity of representative compounds of the present invention was measured using 0.03-1 nM ^125 I-C5a with 2.5-25 μg/mL of purified PMNL membrane fragments (Borregaard, N.; Heiple, J. M.; Simons, E. R.; and Clark, R. A. J. Cell. Biol. 1983, 97, 52-61.). Free and membrane-bound ligand were separated by filtration.

Row | Compound | Ki
1 | CC(=O)N[C@@H](Cc1ccc([N+](=O)[O-])cc1)C(=O)N[C@@H](CCCCN)C(=O)N[C@@H](CC(=O)O)C(=O)N[C@@H](CC1CCCCC1)C(=O)N[C@@H](CC1CCCCC1)C(=O)N[C@@H](CC(C)C)C(=O)N[C@H](C)C(=O)N[C@@H](CCCNC(=N)N)C(=O)O [Example 31, Ac-(4-NO2)Phenylalanyl-Lysyl-Aspartyl-{(2S)-2-Amino-3-cyclohexylpropanoyl}-{(2S)-2-Amino-3-cyclohexylpropanoyl}-Leucyl-DAlanyl-Arginyl-OH] (Ac-[Phe(4-NO2)]KD[Cha][Cha]L[dA]R-OH) | 90 nM
2 | CC(C)C[C@H](NC(=O)CNC(=O)[C@H](CC1CCCCC1)NC(=O)[C@H](C)NC(=O)[C@H](CCCCN)NC(=O)[C@@H](N)Cc1ccccc1)C(=O)N[C@H](C)C(=O)N[C@@H](CCCNC(=N)N)C(=O)O [Example 165, H-Phenylalanyl-Lysyl-Alanyl-{(2S)-2-Amino-3-cyclohexylpropanoyl}-Glycyl-Leucyl-DAlanyl-Arginyl-OH] (H-FKA[Cha]GL[dA]R-OH) | 42 nM
3 | CC(C)C[C@H](NC(=O)[C@H](CC1CCCCC1)NC(=O)[C@H](Cc1c[nH]c2ccccc12)NC(=O)[C@H](C)NC(=O)[C@H](CCCCN)NC(=O)[C@@H](N)Cc1ccccc1)C(=O)N[C@H](C)C(=O)N[C@@H](CCCNC(=N)N)C(=O)O [Example 245, H-Phenylalanyl-Lysyl-Alanyl-Tryptophyl-{(2S)-2-Amino-3-cyclohexylpropanoyl}-Leucyl-DAlanyl-Arginyl-OH] (H-FKAW[Cha]L[dA]R-OH) | 52 nM
4 | CC[C@H](C)[C@H](N)C(=O)N[C@@H](CO)C(=O)N[C@@H](Cc1ccccc1)C(=O)N[C@@H](CCCCN)C(=O)N[C@@H](CC(=O)O)C(=O)N[C@@H](CC1CCCCC1)C(=O)N[C@@H](CC1CCCCC1)C(=O)N[C@@H](CC(C)C)C(=O)N[C@H](C)C(=O)N[C@@H](CCCNC(=N)N)C(=O)O [Example 111, H-Isoleucyl-Seryl-Phenylalanyl-Lysyl-Aspartyl-{(2S)-2-Amino-3-cyclohexylpropanoyl}-{(2S)-2-Amino-3-cyclohexylpropanoyl}-Leucyl-DAlanyl-Arginyl-OH] (H-ISFKD[Cha][Cha]L[dA]R-OH) | 650 nM
5 | CC(C)C[C@H](NC(=O)CNC(=O)[C@H](CC1CCCCC1)NC(=O)[C@@H](Cc1ccccc1)NC(=O)[C@H](CCCCN)NC(=O)[C@@H](N)Cc1ccccc1)C(=O)N[C@H](C)C(=O)N[C@@H](CCCNC(=N)N)C(=O)O [Example 316, H-Phenylalanyl-Lysyl-DPhenylalanyl-{(2S)-2-Amino-3-cyclohexylpropanoyl}-Glycyl-Leucyl-DAlanyl-Arginyl-OH] (H-FK[dF][Cha]GL[dA]R-OH) | 170 nM
6 | CC(C)C[C@H](NC(=O)[C@H](C)NC(=O)[C@H](CC1CCCCC1)NC(=O)[C@H](C)NC(=O)[C@H](CCCCN)NC(=O)[C@@H](N)Cc1ccccc1)C(=O)N[C@H](C)CN[C@@H](CCCNC(=N)N)C(=O)O [Example 421, H-Phenylalanyl-Lysyl-Alanyl-{(2S)-2-Amino-3-cyclohexylpropanoyl}-Alanyl-Leucyl-DAlanyl-.psi.{CH2 --NH}-Arginyl-OH] (H-FKA[Cha]AL-X2) | 3200 nM
7 | CC(C)C[C@H](NC(=O)CNC(=O)C1Cc2ccccc2CN1C(=O)[C@H](C)NC(=O)[C@H](CCCCN)NC(=O)[C@@H](N)Cc1ccccc1)C(=O)N[C@H](C)C(=O)N[C@@H](CCCNC(=N)N)C(=O)O (stereo partly drawn) [Example 445, H-Phenylalanyl-Lysyl-Alanyl-{(3R/S)-1,2,3,4-Tetrahydroisoquinolin-3-carbonyl}-Glycyl-Leucyl-DAlanyl-Arginyl-OH] (H-FKA[ξTic]GL[dA]R-OH) | 260 nM
8 | CC(C)C[C@H](NC(=O)[C@H](CC1CCCCC1)NC(=O)[C@H](CC1CCCCC1)NC(=O)[C@H](C)NC(=O)[C@H](CCCCN)NC(=O)[C@@H](N)Cc1ccccc1)C(=O)N[C@H](C)C(=O)NCC(=O)N[C@@H](CCCNC(=N)N)C(=O)O [Example 213, H-Phenylalanyl-Lysyl-Alanyl-{(2S)-2-Amino-3-cyclohexylpropanoyl}-{(2S)-2-Amino-3-cyclohexylpropanoyl)-Leucyl-DAlanyl-Glycyl-Arginyl-OH] (H-FKA[Cha][Cha]L[dA]GR-OH) | 330 nM
9 | CC(=O)N[C@@H](Cc1ccccc1)C(=O)N[C@@H](CCCCN)C(=O)N[C@@H](C)C(=O)N[C@@H](CC1CCCCC1)C(=O)N[C@@H](C)C(=O)N[C@@H](CC(C)C)C(=O)N[C@H](C)C(=O)N[C@@H](Cc1ccc(O)cc1)C(=O)O [Example 305, Ac-Phenylalanyl-Lysyl-Alanyl-{(2S)-2-Amino-3-cyclohexylpropanoyl}-Alanyl-Leucyl-DAlanyl-Tyrosyl-OH] (Ac-FKA[Cha]AL[dA]Y-OH) | 170 nM
10 | CC(C)C[C@H](NC(=O)[C@H](C)NC(=O)[C@H](C)NC(=O)[C@H](CCCCN)NC(=O)[C@@H](N)Cc1ccccc1)C(=O)N[C@@H](C)C(=O)N[C@H](C)C(=O)N[C@@H](CCCNC(=N)N)C(=O)O [Example 295, H-Phenylalanyl-Lysyl-Alanyl-Alanyl-Leucyl-Alanyl-DAlanyl-Arginyl-OH] (H-FKAALA[dA]R-OH) | 3300 nM
11 | CSCC[C@H](NC(=O)[C@H](CC(=O)O)NC(=O)[C@H](CCCCN)NC(=O)[C@@H](N)Cc1ccccc1)C(=O)N[C@@H](CCCNC(=N)N)C(=O)N[C@@H](CC(C)C)C(=O)NCC(=O)N[C@@H](CCCNC(=N)N)C(=O)O [Example 424, H-Phenylalanyl-Lysyl-Aspartyl-Methionyl-Arginyl-Leucyl-Glycyl-Arginyl-OH] (H-FKDMRLGR-OH) | 480 nM
12 | CSCC[C@H](NC(=O)[C@H](CC(=O)O)NC(=O)[C@H](CCCCN)NC(=O)[C@@H](N)Cc1ccc2ccccc2c1)C(=O)N[C@@H](CCC(N)=O)C(=O)N[C@@H](CC(C)C)C(=O)NCC(=O)N[C@@H](CCCNC(=N)N)C(=O)O [Example 377, H-{3-(2'-Naphthyl)alanyl}-Lysyl-Aspartyl-Methionyl-Glutaminyl-Leucyl-Glycyl-Arginyl-OH] (H-[2Nal]KDMQLGR-OH) | 1800 nM
13 | CC(C)C[C@H](NC(=O)[C@H](CC1CCCCC1)NC(=O)[C@@H](NC(=O)[C@H](C)NC(=O)[C@H](CCCCN)NC(=O)[C@@H](N)Cc1ccccc1)[C@@H](C)O)C(=O)N[C@H](C)C(=O)N[C@@H](CCCNC(=N)N)C(=O)O [Example 182, H-Phenylalanyl-Lysysl-Alanyl-Threonyl-{(2S)-2-Amino-3-cyclohexylpropanoyl}-Leucyl-DAlanyl-Arginyl-OH] (H-FKAT[Cha]L[dA]R-OH) | 300 nM
14 | CC(C)C[C@H](NC(=O)[C@H](C)NC(=O)[C@@H](NC(=O)[C@H](C)NC(=O)[C@H](CCCCN)NC(=O)[C@@H](N)Cc1ccccc1)C(O)c1ccccc1)C(=O)N[C@H](C)C(=O)N[C@@H](CCCNC(=N)N)C(=O)O (stereo partly drawn) [Example 117, H-Phenylalanyl-Lysyl-Alanyl-Phenylseryl-Alanyl-Leucyl-DAlanyl-Arginyl-OH] (H-FKA[X1]AL[dA]R-OH) | 550 nM
15 | CC(C)C[C@H](NC(=O)CNC(=O)[C@@H](Cc1ccccc1)NC(=O)[C@H](C)NC(=O)[C@H](CCCCN)NC(=O)[C@@H](N)Cc1ccccc1)C(=O)N[C@H](C)C(=O)N[C@@H](CCCNC(=N)N)C(=O)O [Example 282, H-Phenylalanyl-Lysyl-Alanyl-DPhenylalanyl-Glycyl-Leucyl-DAlanyl-Arginyl-OH] (H-FKA[dF]GL[dA]R-OH) | 29 nM
